Experimental data as given in BindingDB's records for doi:10.1021/jm00144a035 (1982).

Biological target: Choline O-acetyltransferase (squid)
Test: Inhibition of choline acetyltransferase isolated from squid head ganglia

Ki [nM] | SMILES
1800 | Nc1c(S(=O)(=O)O)cc(Nc2ccc(Nc3nc(Nc4ccc(S(=O)(=O)O)cc4)nc(=O)[nH]3)c(S(=O)(=O)O)c2)c2c1C(=O)c1ccccc1C2=O [1-Amino-4-{4-[4-hydroxy-6-(4-sulfo-phenylamino)-[1,3,5]triazin-2-ylamino]-3-sulfo-phenylamino}-9,10-dioxo-9,10-dihydro-anthracene-2-sulfonic acid]
2300 | CSSCCNC(=O)CCNC(=O)C(O)C(C)(C)COP(=O)(O)OP(=O)(O)OC[C@H]1O[C@@H](n2cnc3c(N)ncnc32)[C@H](O)[C@@H]1OP(=O)(O)O (some centres not stated) [Methyldisulfanyl analogue of coenzyme A]
